Results published in patent US12290071B2, “Performic acid biofilm prevention for industrial CO2 scrubbers” (ECOLAB USA INC., priority 2016, dated 2025).

Columns and labels:
[1] = test system: broad spectrum of microorganisms; settings: background statement; cited from earlier work
[2] = test system: Pseudomonas aeruginosa ATCC 15442; experiment: Biocidal performance of performic acid, log reduction in synthetic hard water; type: cell-based; settings: 0.5, 1.0, 2.0 ppm PFA; 10 minutes and 4 hours contact; 25° C.
Protocol: Additional biocidal performance of performic acid was evaluated for log reduction of Pseudomonas aeruginosa as shown in Table 2.

[3] = test system: biofilm fouling of CO2 scrubbers; experiment: Field test of CO2 scrubbers in an ethanol fermentation plant; settings: 30 minute treatment at 75-100 ppm PFA, ambient temperature, 80 gallons per minute
Protocol: Removal and/or prevention of biofilm fouling of CO2 scrubbers was tested with peroxyformic acid. Such scrubbers were evaluated in an ethanol fermentation plant which conventionally employs CIP cleaning process with hot caustic recirculated through the system every few weeks to clean any biofilm which has accumulated since the prior CIP cleaning cycle. This problem to be solved is the prevention of biofilm in the systems instead of removal of the biofilm after the same has been formed. The prevention of biofilm is more desirable than removal, as biofilm scuffs off and undesirably plugs lines within the system and in an fermentation facility the stream of reclaimed ethanol that goes back into the process may undesirably carry microbes from the biofilm. As a result, the use of performic acid was compared to the conventional CIP cleaning for efficacy. […]

Pseudomonas biofilm = Pseudomonas biofilm on polycarbonate coupons, PFA compared with another peroxyacid; type: cell-based, Pseudomonas aeruginosa; settings: 50 ppm PFA vs 200 ppm PAA, hard water pH 7.71, 3 hrs exposure
Protocol: Additional biocidal performance of performic acid was evaluated for log reduction of Pseudomonas aeruginosa in comparison to another peroxyacid. A Pseudomonas biofilm was treated with 50 ppm active of PFA and compared to efficacy treated with 200 ppm PAA. Pseudomonas biofilms were grown in a CDC biofilm reactor on a poly carbonate coupons. Appropriate concentration of the treatment substance were diluted in hard water at pH 7.71 diluent. Test chemicals were exposed for 3 hrs after which they were treated with 16 mLs of thiosulfate to neutralize any oxidants. The untreated control and treated Pseudomonas were plated on a TGE media and incubated at 35° C. for 48 hrs. A […] reduction was monitored by colony counting of Pseudomonas on plates.

[4] = test system: P. aeruginosa ATCC 15442 biofilm; experiment: Reduction of P. aeruginosa biofilm at different exposure times (ASTM E2562-12 / E2871-12); type: cell-based, Pseudomonas aeruginosa ATCC 15442; settings: 50 ppm PFA for 15 min to 3 hours vs 200 ppm POAA for 3 hours
Protocol: Reduction of P. aeruginosa Biofilm Using Different Exposure Times of Peroxyformic Acid. P. aeruginosa ATCC 15442 biofilm was grown on the surface of 24 polycarbonate coupons following ASTM method E2562-12: Standard Test Method for Quantification of Pseudomonas aeruginosa Biofilm Grown with High Shear and Continuous Flow using CDC Biofilm Reactor. After 48 hours of biofilm establishment, the coupons were removed from the reactor and placed into individual centrifuge tubes. Three coupons per test condition were tested for disinfectant efficacy using ASTM method E2871-12: Standard Test Method for Evaluating Disinfectant Efficacy against Pseudomonas aeruginosa Biofilm Grown in CDC Biofilm Reactor using Single Tube Method. Sets of three coupons were exposed to 4 mL of 50 ppm PFA for exposure times of 15 minutes, 30 minutes, 1 hour, 2 hours and 3 hours, while coupons treated with 200 ppm POAA were exposed for 3 hours only. […] This was followed with a series of vortexing and sonicating steps to remove any biofilm from the coupon surface into the solution for plating and enumeration.

CC(=O)OO [Peracetic acid]
concentration at which it is a good biocide [1]: greater than 80 part per million

O=COO [peroxyformic acid]
biocidal efficacy (in words) [2]: beneficially efficacy
biofilm formation in CO2 scrubbers (in words) [3]: biofilm did not form
reduction in Pseudomonas aeruginosa compared with peracetic acid (in words) (Pseudomonas biofilm): substantially increased reduction in Pseudomonas aeruginosa
anti-biofilm efficacy compared with POAA (in words) [4]: greater anti-biofilm efficacy with shorter exposure time and lower concentrations than POAA
